The text below walks through data of patent US7192906B2, “Substituted pyrazole derivatives, production process thereof, and herbicide compositions containing the derivatives” (SDS Biotech K.K., priority 2001, dated 2007).

Holding throughout (assay type): in vivo
One data set relates to Monochoria vaginalis. Kind of data set: Test Example 3 paddy field treatment. To be noted: active ingredient 1 kg per hectare, index 0-5. The gist of the method: (§1)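 Scoring used a 0–5 scale of herbicidal effect or phytotoxicity, from <10% to ≥90%, taken 21 days after treatment. Treatment was 1 kg a.i./ha as diluted wettable powder dripped onto 4 cm-deep flooded pots sown with the weeds, 10 days after transplanting two-leaf Koshihikari rice.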

The next data set relates to Echinochloa crusgalli. Kind of data set: Test Example 3 paddy field treatment. To be noted: active ingredient 1 kg per hectare, index 0-5. In a few lines:
as §1

The next data set has as its system Ammannia multiflora. Put plainly: Test Example 3 paddy field treatment. To be noted: active ingredient 1 kg per hectare, index 0-5. The gist of the method: as §1
For a further data set, the system named is Scirpus juncoides. Kind of data set: Test Example 3 paddy field treatment. To be noted: active ingredient 1 kg per hectare, index 0-5. In a few lines: as §1
The test system of data set [1] is wheat (Triticum aestivum). Kind of data set: Test Example 2 upland soil treatment, crop phytotoxicity. To be noted: Table 5, upland soil treatment, index 0-5. In a few lines: (§2)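 Seeds are sown into upland soil and covered by roughly 1 cm of soil, then the compound, formulated as a wettable powder and diluted with water, is applied uniformly to the soil surface the following day at 1 kg active ingredient per hectare. Herbicidal effect or phytotoxicity is graded 0 to 5 after 21 days.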

The subject of data set [2] is soybean (Glycine max). The description is as above. To be noted: Table 5, upland soil treatment, index 0-5. The gist of the method: as §2
A further data set concerns Rice (Oryza sativa). Kind of data set: Test Example 3 paddy field treatment, crop phytotoxicity. To be noted: active ingredient 1 kg per hectare, index 0-5. In a few lines: as §1
The subject of data set [3] is Digitaria adscendens. Kind of data set: Test Example 1 upland field foliage treatment. To be noted: Table 4, upland field foliage treatment, index 0-5. In a few lines: (§3)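 Post-emergence foliar spray, 1 kg a.i./ha, wettable powder diluted in water, applied 14 d after sowing in upland soil. Rating 21 d post-application, 0–5 scale: 5 ≥90%, 4 70–<90%, 3 50–<70%, 2 30–<50%, 1 10–<30%, 0 <10% effect or injury.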

Data set [4] concerns Chenopodium album. Put plainly: Test Example 1 upland field foliage treatment. To be noted: Table 4, upland field foliage treatment, index 0-5. In a few lines:
as §3

The subject of data set [5] is Setaria viridis. Kind of data set: Test Example 1 upland field foliage treatment. To be noted: Table 4, upland field foliage treatment, index 0-5. The gist of the method:
as §3

Data set [6] concerns Stellaria media. Put plainly: Test Example 1 upland field foliage treatment. To be noted: Table 4, upland field foliage treatment, index 0-5. In a few lines:
as §3

For data set [7], the system named is Digitaria adscendens. Put plainly: Test Example 2 upland soil treatment. To be noted: Table 5, upland soil treatment, index 0-5. In a few lines: as §2
Data set [8] has as its system Chenopodium album. Kind of data set: Test Example 2 upland soil treatment. To be noted: Table 5, upland soil treatment, index 0-5. In a few lines:
as §2

Data set [9] concerns Setaria viridis. Put plainly: Test Example 2 upland soil treatment. To be noted: Table 5, upland soil treatment, index 0-5. In a few lines: as §2
Data set [10] relates to Stellaria media. Put plainly: Test Example 2 upland soil treatment. To be noted: Table 5, upland soil treatment, index 0-5. The gist of the method: as §2
Data set [11] has as its system wheat (Triticum aestivum). Put plainly: Test Example 1 upland field foliage treatment, crop phytotoxicity. To be noted: Table 4, upland field foliage treatment, index 0-5. The gist of the method: as §3
For data set [12], the system named is soybean (Glycine max). The data set is described as above. To be noted: Table 4, upland field foliage treatment, index 0-5. The gist of the method: as §3
Where [13] appears, read: paddy field treatment, wettable powder, 21st day after the dropping.
Setting [14] is: Table 6, paddy field treatment, 21st day after dropping.

As for `CNC(=O)C(Cn1cc(Cl)c(-c2ccccc2)n1)=NOC` [Compound 14], the “Herbicidal activity MV” value in the data set with Monochoria vaginalis (setting [13]) is recorded as 5 (herbicidal effect of not less than 90%, or phytotoxicity of 90% or more). The “Herbicidal activity EC” value with Echinochloa crusgalli (setting [13]) is listed as 5 (herbicidal effect of not less than 90%, or phytotoxicity of 90% or more). Also, the “Herbicidal activity AM” value in the data set on Ammannia multiflora (setting [13]) is on record as 5 (herbicidal effect of not less than 90%, or phytotoxicity of 90% or more). Besides, in the data set with Scirpus juncoides (setting [13]), the “Herbicidal activity SJ” value is 5 (herbicidal effect of not less than 90%, or phytotoxicity of 90% or more). The “Herbicidal activity (phytotoxicity) TA: Wheat (Triticum aestivum)” value (shortened to “Herbicidal activity (phytotoxicity) TA”) is 0 (herbicidal effect of not less than 0% and less than 10%, or phytotoxicity of 0% or more and less than 10%) in data set [1]; 0 (herbicidal effect of not less than 0% and less than 10%, or phytotoxicity of 0% or more and less than 10%) in data set [11]. Further, the “Herbicidal activity (phytotoxicity) GM: Soybean (Glycine max)” value (from here on “Herbicidal activity (phytotoxicity) GM”) in the data set on soybean (Glycine max) [2] was 1 (herbicidal effect of not less than 10% and less than 30%, or phytotoxicity of 10% or more and less than 30%); in the data set on soybean (Glycine max) [12], 0 (herbicidal effect of not less than 0% and less than 10%, or phytotoxicity of 0% or more and less than 10%). Moreover, the “Herbicidal activity OS (phytotoxicity to rice)” value in the data set on Rice (Oryza sativa) (paddy field treatment, transplanted rice Koshihikari, wettable powder, 21st day after the dropping) was 1 (herbicidal effect of not less than 10% and less than 30%, or phytotoxicity of 10% or more and less than 30%). The “Herbicidal activity DA: Digitaria adscendens” value (“Herbicidal activity DA” for short) is on record as 5 (herbicidal effect of not less than 90%, or phytotoxicity of 90% or more) with Digitaria adscendens [3] and 5 (herbicidal effect of not less than 90%, or phytotoxicity of 90% or more) in the data set with Digitaria adscendens [7]. The “Herbicidal activity CA: Chenopodium album” value (“Herbicidal activity CA” below) is on record as 5 (herbicidal effect of not less than 90%, or phytotoxicity of 90% or more) in the data set on Chenopodium album [4] and 5 (herbicidal effect of not less than 90%, or phytotoxicity of 90% or more) in the data set with Chenopodium album [8]. In addition, the “Herbicidal activity SV: Setaria viridis” value in the data set on Setaria viridis [5] was 5 (herbicidal effect of not less than 90%, or phytotoxicity of 90% or more); in the data set on Setaria viridis [9], 5 (herbicidal effect of not less than 90%, or phytotoxicity of 90% or more). For the same compound, the “Herbicidal activity SM: Stellaria media” value in the data set with Stellaria media [6] was 5 (herbicidal effect of not less than 90%, or phytotoxicity of 90% or more); in the data set with Stellaria media [10], 5 (herbicidal effect of not less than 90%, or phytotoxicity of 90% or more).

As for `CNC(=O)C(Cn1cc(C)c(-c2cccc(F)c2F)n1)=NOC` [Compound 55], the “Herbicidal activity MV” value with Monochoria vaginalis (setting [14]) is 5 (herbicidal effect of not less than 90%, or phytotoxicity of 90% or more). In the data set with Echinochloa crusgalli (setting [14]), the “Herbicidal activity EC” value is listed as 5 (herbicidal effect of not less than 90%, or phytotoxicity of 90% or more). For the same compound, the “Herbicidal activity AM” value in the data set with Ammannia multiflora (setting [14]) is recorded as 5 (herbicidal effect of not less than 90%, or phytotoxicity of 90% or more). Further, the “Herbicidal activity SJ” value with Scirpus juncoides (setting [14]) was 5 (herbicidal effect of not less than 90%, or phytotoxicity of 90% or more). For the same compound, the “Herbicidal activity (phytotoxicity) TA” value in [1] was 0 (herbicidal effect of not less than 0% and less than 10%, or phytotoxicity of 0% or more and less than 10%). In addition, in the data set with soybean (Glycine max) [2], the “Herbicidal activity (phytotoxicity) GM” value was 0 (herbicidal effect of not less than 0% and less than 10%, or phytotoxicity of 0% or more and less than 10%). Also, the “Herbicidal activity (phytotoxicity) OS” value in the data set on Rice (Oryza sativa) (Table 6, paddy field treatment, transplanted rice, 21st day after dropping) was 0 (herbicidal effect of not less than 0% and less than 10%, or phytotoxicity of 0% or more and less than 10%). In the data set on Digitaria adscendens [7], the “Herbicidal activity DA” value is listed as 5 (herbicidal effect of not less than 90%, or phytotoxicity of 90% or more). In addition, in the data set with Chenopodium album [8], the “Herbicidal activity CA” value was 5 (herbicidal effect of not less than 90%, or phytotoxicity of 90% or more). For the same compound, in the data set with Setaria viridis [9], the “Herbicidal activity SV: Setaria viridis” value is given as 5 (herbicidal effect of not less than 90%, or phytotoxicity of 90% or more). The “Herbicidal activity SM: Stellaria media” value in the data set on Stellaria media [10] is reported as 5 (herbicidal effect of not less than 90%, or phytotoxicity of 90% or more).

Consider `CNC(=O)C(Cn1cc(C)c(-c2ccccc2)n1)=NOCc1ccccc1` [Compound 106], for which the “Herbicidal activity (phytotoxicity) TA” value in data set [1] was 0 (herbicidal effect of not less than 0% and less than 10%, or phytotoxicity of 0% or more and less than 10%); in [11], 0 (herbicidal effect of not less than 0% and less than 10%, or phytotoxicity of 0% or more and less than 10%). Besides, the “Herbicidal activity (phytotoxicity) GM” value in the data set on soybean (Glycine max) [2] was 0 (herbicidal effect of not less than 0% and less than 10%, or phytotoxicity of 0% or more and less than 10%); with soybean (Glycine max) [12], 0 (herbicidal effect of not less than 0% and less than 10%, or phytotoxicity of 0% or more and less than 10%). In addition, the “Herbicidal activity DA” value is 3 (herbicidal effect of not less than 50% and less than 70%, or phytotoxicity of 50% or more and less than 70%) in the data set on Digitaria adscendens [3]; 4 (herbicidal effect of not less than 70% and less than 90%, or phytotoxicity of 70% or more and less than 90%) with Digitaria adscendens [7]. Besides, the “Herbicidal activity CA” value in the data set with Chenopodium album [4] is 3 (herbicidal effect of not less than 50% and less than 70%, or phytotoxicity of 50% or more and less than 70%); with Chenopodium album [8], 4 (herbicidal effect of not less than 70% and less than 90%, or phytotoxicity of 70% or more and less than 90%). In addition, the “Herbicidal activity SV: Setaria viridis” value was 3 (herbicidal effect of not less than 50% and less than 70%, or phytotoxicity of 50% or more and less than 70%) with Setaria viridis [5]; 3 (herbicidal effect of not less than 50% and less than 70%, or phytotoxicity of 50% or more and less than 70%) in the data set with Setaria viridis [9]. Besides, the “Herbicidal activity SM: Stellaria media” value is 3 (herbicidal effect of not less than 50% and less than 70%, or phytotoxicity of 50% or more and less than 70%) in the data set on Stellaria media [6]; 4 (herbicidal effect of not less than 70% and less than 90%, or phytotoxicity of 70% or more and less than 90%) in the data set with Stellaria media [10].

Turning to `CON=C(Cn1cc(C)c(-c2ccccc2)n1)C(=O)NN(C)C` [Compound 124], the “Herbicidal activity (phytotoxicity) TA” value in data set [1] is 0 (herbicidal effect of not less than 0% and less than 10%, or phytotoxicity of 0% or more and less than 10%); in data set [11], 0 (herbicidal effect of not less than 0% and less than 10%, or phytotoxicity of 0% or more and less than 10%). The “Herbicidal activity (phytotoxicity) GM” value with soybean (Glycine max) [2] was 0 (herbicidal effect of not less than 0% and less than 10%, or phytotoxicity of 0% or more and less than 10%); in the data set on soybean (Glycine max) [12], 0 (herbicidal effect of not less than 0% and less than 10%, or phytotoxicity of 0% or more and less than 10%). The “Herbicidal activity DA” value in the data set on Digitaria adscendens [3] was 3 (herbicidal effect of not less than 50% and less than 70%, or phytotoxicity of 50% or more and less than 70%); in the data set on Digitaria adscendens [7], 3 (herbicidal effect of not less than 50% and less than 70%, or phytotoxicity of 50% or more and less than 70%). The “Herbicidal activity CA” value is 4 (herbicidal effect of not less than 70% and less than 90%, or phytotoxicity of 70% or more and less than 90%) with Chenopodium album [4]; 5 (herbicidal effect of not less than 90%, or phytotoxicity of 90% or more) in the data set on Chenopodium album [8]. The “Herbicidal activity SV: Setaria viridis” value in the data set with Setaria viridis [5] is 3 (herbicidal effect of not less than 50% and less than 70%, or phytotoxicity of 50% or more and less than 70%); in the data set on Setaria viridis [9], 3 (herbicidal effect of not less than 50% and less than 70%, or phytotoxicity of 50% or more and less than 70%). Also, the “Herbicidal activity SM: Stellaria media” value was 4 (herbicidal effect of not less than 70% and less than 90%, or phytotoxicity of 70% or more and less than 90%) in the data set on Stellaria media [6]; 4 (herbicidal effect of not less than 70% and less than 90%, or phytotoxicity of 70% or more and less than 90%) with Stellaria media [10].
